By Kd is commonly meant the equilibrium constant for the complex coming apart. Read a high Kd as weaker binding.

This is an account of results in patent US7745001B2, “Synthesis of nanoassemblies containing luminescent quantum dots and magnetic nanoparticles” (University of New Orleans Research and Technology …, priority 2004, dated 2010).

The target of the assay is Concanavaline A (Con A) (Canavalia ensiformis, UniProt P02866). The assay is described as follows: dextran-Con A binding (dissociation constant). From the text: The glyconanospheres of the present invention can contain dextran molecules (or could contain other polysaccharides) on their surface that interact strongly with carbohydrate binding proteins. These glyconanospheres can be used for real-time monitoring of protein carbohydrate interactions. The inventors in their studies of the present invention focused on lectins, which are sugar binding proteins. In particular the inventors worked with Concanavaline A (Con A) which binds glycosylic residues in carbohydrates with high affinity (the dissociation constant of dextran-Con A was found in studies of the present inventors to be about 1 nanomolar).

As for dextran, the Kd was ~1 nM.
